According to PubChem BioAssay AID248 (DTP/NCI, 2004):
“And” between values parts separate entries of the source, which are not always exact repeats. Equal values may be shown once. Inconclusive results and toxic doses are left out. Cut-off read from the data, not from the text of the source: active = T/C of 150% or more; inactive = T/C below 125%.

Test system: L1210 leukemia ip in BDF1 mice, survival T/C
Assay: NCI In Vivo Anticancer Drug Screen. Data for tumor model L1210 Leukemia (intraperitoneal) in B6D2F1 (BDF1) mice
Conditions: endpoint: mean survival time, higher = longer survival
Outline: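 Each compound was tested against a transplantable tumor grown in mice. The endpoint was survival, with treated animals benchmarked against vehicle controls as a simple ratio.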

[1] = dose: 50.0 mg/kg/injection, schedule: Q01DX009 (ip), vehicle: saline
[2] = dose: 100.0 mg/kg/injection, schedule: Q04DX003 (ip), vehicle: saline with Tween-80
[3] = dose: 200.0 mg/kg/injection, schedule: Q04DX003 (ip), vehicle: saline with Tween-80
[4] = dose: 400.0 mg/kg/injection, schedule: Q04DX003 (ip), vehicle: saline with Tween-80
[5] = dose: 100.0 mg/kg/injection, schedule: Q01DX009 (ip), vehicle: Klucel (hydroxypropylcellulose) (HPC)
[6] = dose: 100.0 mg/kg/injection, schedule: Q04DX003 (ip), vehicle: Klucel (hydroxypropylcellulose) (HPC)
[7] = dose: 200.0 mg/kg/injection, schedule: Q01DX009 (ip), vehicle: Klucel (hydroxypropylcellulose) (HPC)
[8] = dose: 200.0 mg/kg/injection, schedule: Q04DX003 (ip), vehicle: Klucel (hydroxypropylcellulose) (HPC)
[9] = dose: 400.0 mg/kg/injection, schedule: Q01DX009 (ip), vehicle: Klucel (hydroxypropylcellulose) (HPC)
[10] = dose: 400.0 mg/kg/injection, schedule: Q04DX003 (ip), vehicle: Klucel (hydroxypropylcellulose) (HPC)
[11] = dose: 100.0 mg/kg/injection, schedule: Q01DX001 (ip), vehicle: saline
[12] = dose: 200.0 mg/kg/injection, schedule: Q01DX001 (ip), vehicle: saline
[13] = dose: 100.0 mg/kg/injection, schedule: Q04DX003 (ip), vehicle: saline
[14] = dose: 400.0 mg/kg/injection, schedule: Q01DX001 (ip), vehicle: saline
[15] = dose: 100.0 mg/kg/injection, schedule: Q04DX002 (ip), vehicle: Klucel (hydroxypropylcellulose) (HPC)
[16] = dose: 200.0 mg/kg/injection, schedule: Q04DX002 (ip), vehicle: Klucel (hydroxypropylcellulose) (HPC)
[17] = dose: 100.0 mg/kg/injection, schedule: Q01DX009 (ip), vehicle: saline with Tween-80
[18] = dose: 200.0 mg/kg/injection, schedule: Q01DX009 (ip), vehicle: saline with Tween-80
[19] = dose: 200.0 mg/kg/injection, schedule: Q04DX003 (ip), vehicle: saline
[20] = dose: 400.0 mg/kg/injection, schedule: Q04DX003 (ip), vehicle: saline

Measured: T/C

CCCCOP(=O)(/C=C\c1ccccn1)OCCCC
inactive: dose: 50.0 mg/kg/injection, schedule: Q01DX009 (ip), vehicle: carboxymethylcellulose (CMC) 95 % of control and 97 % of control | dose: 50.0 mg/kg/injection, schedule: Q04DX003 (ip), vehicle: carboxymethylcellulose (CMC) 96 % of control | dose: 100.0 mg/kg/injection, schedule: Q01DX009 (ip), vehicle: carboxymethylcellulose (CMC) 94 % of control and 101 % of control | dose: 100.0 mg/kg/injection, schedule: Q04DX002 (ip), vehicle: carboxymethylcellulose (CMC) 100 % of control and 102 % of control | dose: 100.0 mg/kg/injection, schedule: Q04DX003 (ip), vehicle: carboxymethylcellulose (CMC) 108 % of control | dose: 200.0 mg/kg/injection, schedule: Q01DX009 (ip), vehicle: carboxymethylcellulose (CMC) 102 % of control and 117 % of control | dose: 200.0 mg/kg/injection, schedule: Q04DX002 (ip), vehicle: carboxymethylcellulose (CMC) 106 % of control and 91 % of control | dose: 200.0 mg/kg/injection, schedule: Q04DX003 (ip), vehicle: carboxymethylcellulose (CMC) 102 % of control

Cc1cc(C(C)(C)c2ccc(O)c(C)c2)ccc1O
inactive: [1] 97 % of control | dose: 100.0 mg/kg/injection, schedule: Q01DX009 (ip), vehicle: saline 97 % of control | [2] 100 % of control | dose: 200.0 mg/kg/injection, schedule: Q01DX009 (ip), vehicle: saline 94 % of control | [3] 102 % of control | [4] 107 % of control

COC(=O)C(Br)C(=O)OC
inactive: dose: 12.5 mg/kg/injection, schedule: Q04DX002 (ip), vehicle: saline with Tween-80 97 % of control | dose: 25.0 mg/kg/injection, schedule: Q04DX002 (ip), vehicle: saline with Tween-80 97 % of control

CCOC(=O)CC(=O)c1ccccc1F
inactive: [5] 97 % of control | [6] 102 % of control | [7] 103 % of control | [8] 103 % of control | [9] 93 % of control | [10] 100 % of control

O=S(=O)(CCN1CCCCC1)c1ccc(F)cc1
inactive: [11] 100 % of control | [12] 100 % of control

CC1OC1C(=O)Sc1ccccc1 (stereo unspecified)
inactive: dose: 25.0 mg/kg/injection, schedule: Q04DX003 (ip), vehicle: Klucel (hydroxypropylcellulose) (HPC) 100 % of control | dose: 50.0 mg/kg/injection, schedule: Q04DX003 (ip), vehicle: Klucel (hydroxypropylcellulose) (HPC) 103 % of control | [6] 93 % of control and 86 % of control

CCCNCCCCCCNCCC
inactive: [13] 98 % of control

COc1ccc(/C=C(\C(=O)c2ccc(O)cc2)c2ccccc2)cc1OC
inactive: dose: 100.0 mg/kg/injection, schedule: Q01DX001 (ip), vehicle: carboxymethylcellulose (CMC) 94 % of control | dose: 200.0 mg/kg/injection, schedule: Q01DX001 (ip), vehicle: carboxymethylcellulose (CMC) 89 % of control | dose: 400.0 mg/kg/injection, schedule: Q01DX001 (ip), vehicle: carboxymethylcellulose (CMC) 89 % of control

COc1ccccc1CN1CCCN(Cc2ccccc2OC)C1c1ccccc1
inactive: dose: 50.0 mg/kg/injection, schedule: Q01DX001 (ip), vehicle: saline 101 % of control | [11] 109 % of control | [12] 90 % of control | [14] 90 % of control

CN1CCN(C(=O)Nc2ccc(N=Nc3ccccc3)cc2)CC1
inactive: [8] 87 % of control

O=CN/N=C/c1c[nH]c(=O)[nH]c1=O
inactive: [11] 101 % of control | [12] 106 % of control | [14] 95 % of control

O=[N+]([O-])c1cc(S(=O)(=O)C(F)F)ccc1Cl
inactive: dose: 25.0 mg/kg/injection, schedule: Q04DX003 (ip), vehicle: gum acacia 97 % of control | dose: 50.0 mg/kg/injection, schedule: Q01DX009 (ip), vehicle: gum acacia 93 % of control | dose: 50.0 mg/kg/injection, schedule: Q04DX003 (ip), vehicle: gum acacia 97 % of control | dose: 100.0 mg/kg/injection, schedule: Q01DX009 (ip), vehicle: gum acacia 88 % of control | dose: 100.0 mg/kg/injection, schedule: Q04DX003 (ip), vehicle: gum acacia 99 % of control and 102 % of control

CSCC(C)(C)NC(=O)NCCCl
inactive: [15] 89 % of control | [16] 89 % of control

NC(Cc1ccc(O)cc1)C(=O)OCc1ccccc1 (stereo unspecified)
inactive: [17] 88 % of control | [15] 104 % of control | [2] 97 % of control | [18] 94 % of control | [16] 96 % of control | [3] 94 % of control | dose: 400.0 mg/kg/injection, schedule: Q01DX009 (ip), vehicle: saline with Tween-80 91 % of control | dose: 400.0 mg/kg/injection, schedule: Q04DX002 (ip), vehicle: Klucel (hydroxypropylcellulose) (HPC) 96 % of control | [4] 103 % of control

COC(=O)C(C)NC(=O)C1CSC(C)(C)N1C=O (stereo unspecified)
inactive: [13] 101 % of control | [19] 95 % of control | [20] 95 % of control

COc1cc(CC2C(O)C3CCN2CC3)cc(OC)c1OC (stereo unspecified)
inactive: dose: 25.0 mg/kg/injection, schedule: Q04DX002 (ip), vehicle: saline 101 % of control | dose: 50.0 mg/kg/injection, schedule: Q04DX002 (ip), vehicle: saline 101 % of control | dose: 100.0 mg/kg/injection, schedule: Q04DX002 (ip), vehicle: saline 97 % of control and 104 % of control

CC1(CC(=O)O)CCc2ccccc2C1=O (stereo unspecified)
inactive: [5] 98 % of control | [6] 98 % of control | [7] 94 % of control | [8] 96 % of control | [9] 100 % of control | [10] 102 % of control

O=C(O)CCC(=O)NCCNC(c1ccccc1)(c1ccccc1)c1ccccc1
inactive: dose: 12.0 mg/kg/injection, schedule: Q01DX009 (ip), vehicle: saline 96 % of control | dose: 25.0 mg/kg/injection, schedule: Q01DX009 (ip), vehicle: saline 96 % of control | [1] 100 % of control | [13] 111 % of control | [19] 94 % of control | [20] 105 % of control

OCCCNc1nc2cc(Cl)ccc2c2ccc(Cl)cc12
inactive: [5] 90 % of control | [6] 88 % of control | [8] 97 % of control | [10] 103 % of control

O=C(O)c1cc(Cl)ccc1-c1ccc(Cl)cc1C(=O)Nc1ccc2c(c1)Cc1ccccc1-2
inactive: dose: 75.0 mg/kg/injection, schedule: Q01DX001 (ip), vehicle: carboxymethylcellulose (CMC) 102 % of control | dose: 150.0 mg/kg/injection, schedule: Q01DX001 (ip), vehicle: carboxymethylcellulose (CMC) 113 % of control | dose: 300.0 mg/kg/injection, schedule: Q01DX001 (ip), vehicle: carboxymethylcellulose (CMC) 104 % of control

CCN(CC)C(=O)Nc1cccc(OC(=O)N(C)C)c1
inactive: [17] 87 % of control | [18] 89 % of control

CCCCCCCCCCCCCCCCCC(N)=O
inactive: [5] 87 % of control | [6] 102 % of control | [7] 87 % of control | [8] 95 % of control | [9] 117 % of control | [10] 96 % of control

O=C(/C=C\c1ccccc1Cl)c1ccccc1
inactive: dose: 100.0 mg/kg/injection, schedule: Q04DX002 (ip), vehicle: gum acacia 98 % of control | dose: 200.0 mg/kg/injection, schedule: Q04DX002 (ip), vehicle: gum acacia 95 % of control | dose: 400.0 mg/kg/injection, schedule: Q04DX002 (ip), vehicle: gum acacia 113 % of control

CCOC(=O)c1ccc(OC2CCCCO2)c(OC2CCCCO2)c1 (stereo unspecified)
inactive: [2] 98 % of control | [3] 98 % of control | [4] 98 % of control

CC1CCCCN1Cc1ccccc1CC(=O)c1ccccc1 (stereo unspecified)
inactive: [15] 93 % of control | [16] 107 % of control

COc1ccc(Cl)cc1NC(=O)Nc1ccc(F)c([N+](=O)[O-])c1
inactive: [5] 106 % of control | [7] 104 % of control | [9] 102 % of control

Cc1cc(C)cc(OC(=O)Nc2ccccc2Cl)c1
inactive: [5] 88 % of control | [6] 98 % of control | [7] 92 % of control | [8] 98 % of control | [9] 86 % of control | [10] 98 % of control

CNC(CCc1ccccc1)C(=O)O (stereo unspecified)
inactive: dose: 100.0 mg/kg/injection, schedule: Q01DX009 (ip), vehicle: saline sonified 98 % of control | [2] 100 % of control | dose: 200.0 mg/kg/injection, schedule: Q01DX009 (ip), vehicle: saline sonified 101 % of control | [3] 99 % of control | dose: 400.0 mg/kg/injection, schedule: Q01DX009 (ip), vehicle: saline sonified 93 % of control | [4] 99 % of control
